Results published in patent US12653899B2, “Multi-targeted, tunable, sustained delivery of payloads to charged avascular tissues” (Massachusetts Institute of Technology, priority 2019, dated 2026).

What was measured:
[1] = test system: human ankle cartilage explants treated with IL-1β; experiment: IL-1β cytokine challenge model, sGAG biosynthesis rate in human ankle cartilage explants; type: cell-based; conditions: 100 pg/ml (Experiment 5A also 500 pg/ml and 1000 pg/ml) human IL-1β alone; days 6-8
Description: Cartilage was harvested from the ankles of a donor (Collins Grade 1) and a donor (Collins Grade 1). Cartilage explants were equilibrated in culture media for 2 days after harvest. […] These were cut down to 1 mm thickness and allowed to equilibrate for a further 2 days before experiments were set up. Human IL-1β was used to induce osteoarthritis-like changes in cartilage. Experiments were set up to identify IL-1β doses at which 40 nM of free IGF-1 can rescue the IL-1β induced biosynthesis loss in cartilage. A dose response experiment in which single doses of (+9GFP)-(GGGGS)4-(IGF-1) (SEQ ID NO: 7) and (+9GFP)-(EAAAK)3-(IGF-1) (SEQ ID NO: 8) were added along with 100 pg/ml human IL-1β was also set up.
Experimental groups (N=8 to 10 cartilage explants in each group): Untreated control (Ctrl in FIG. 6A and FIG. 6B), 10 pg/mL human IL-1β (10 pg/ml IL-1b in FIG. 6A and FIG. 6B), 10 pg/mL human IL-1β+40 nM IGF-1 (10 pg/ml IL-1b+40 nM IGF-1 in FIG. 6A and FIG. 6B), 100 pg/mL human IL-1β (100 pg/ml IL-1b in FIG. 6A and FIG. 6B), 100 pg/mL human IL-1β+40 nM IGF-1 (100 pg/ml IL-1b+40 nM IGF-1 in FIG. 6A and FIG. 6B), 500 pg/mL human IL-1β (500 pg/ml IL-1b in FIG. 6A and […]), 500 pg/mL human IL-1β+40 nM IGF-1 (500 pg/ml IL-1b+40 nM IGF-1 in FIG. 6A and FIG. 6B), 1000 pg/mL human IL-1β (1 ng/ml IL-1b in FIG. 6A and FIG. 6B), 1000 pg/mL human IL-1β+40 nM IGF-1 (1 ng/ml IL-1b+40 nM IGF-1 in FIG. 6A and FIG. 6B). Media changes were performed every 2 days and the experiment was terminated after 8 days.
Chondrocyte biosynthesis rate (primarily aggrecan synthesis) was measured between days 6 and 8 of the experiment using a 35S-sulfate radiolabel. Statistics: 1-way ANOVA with post-hoc Tukey's HSD test.
This experiment was set up with cartilage explants from the donor ankle. Experimental groups (N=8 to 10 cartilage explants in each group): Untreated control (Ctrl in FIG. 6C), Continuous human IL-1β control (100 pg/ml dose added with every media change) (IL-1b in FIG. 6C), Continuous human IL-1β+continuous free IGF-1 control (100 pg/ml human IL-1β and 40 nM free IGF-1 dose added with every media change) (IL-1b+IGF1 FIG. 6C), Continuous human IL-1β+(+9GFP)-(GGGGS)4-(IGF-1) (SEQ ID NO: 7) 500 nM single dose (100 pg/ml human IL-1β added with every media change; Single 500 nM fusion protein dose added on Day 0) (IL-1b+0.5 μM Flex-1 in FIG. 6C), Continuous human IL-1β+(+9GFP)-(GGGGS)4-(IGF-1) (SEQ ID NO: 7) 1 μM single dose (100 pg/ml human IL-1β added with every media change; Single 1 μM fusion protein dose added on Day 0) (IL-1b+1 μM Flex-1 in FIG. 6C), Continuous human IL-1β+(+9GFP)-(EAAAK)3-(IGF-1) (SEQ ID NO: 8) 500 nM single dose (100 pg/ml human IL-1β added with every media change; Single 500 nM fusion protein dose added on Day 0), Continuous human IL-1β+(+9GFP)-(EAAAK)3-(IGF-1) (SEQ ID NO: 8) 1 μM single dose (100 pg/ml human IL-1β added with every media change; Single 1 μM fusion protein dose added on Day 0) (IL-1b+1 μM Rig-1 in FIG. 6C).
Preliminary dose response experiments were performed to test the effects of human IL-1β (PeproTech, Rocky Hill, NJ) on human ankle cartilage. Ankle cartilage explants from two different donors (equilibrated in culture medium post-harvest) were cultured in serum-free low glucose medium (same composition as equilibration medium) and treated with continuous IL-1β doses ranging from 10 pg/ml to 1 ng/ml for 8 days. The experiments also included groups of explants that were treated with 300 ng/ml free IGF-1 at each dose level of IL-1β. Based on the results of these experiments, 100 pg/ml IL-1β was chosen as the dose used for the fusion protein dose response experiments. In these experiments, ankle and knee cartilage explants (equilibrated in culture medium post-harvest) were treated continuously with IL-1β and received single doses of fusion proteins (ranging from 39.2 nM to 2 μM) at the start of the experiments. […]

[2] = test system: human ankle cartilage explants treated with IL-1β; experiment: Cumulative sGAG loss and final sGAG content (DMMB) in IL-1β challenge, human ankle cartilage; type: cell-based; conditions: 100 pg/ml IL-1β alone; 10-day time point
Description: Preliminary dose response experiments were performed to test the effects of human IL-1β (PeproTech, Rocky Hill, NJ) on human ankle cartilage. Ankle cartilage explants from two different donors (equilibrated in culture medium post-harvest) were cultured in serum-free low glucose medium (same composition as equilibration medium) and treated with continuous IL-1β doses ranging from 10 pg/ml to 1 ng/ml for 8 days. The experiments also included groups of explants that were treated with 300 ng/ml free IGF-1 at each dose level of IL-1β. Based on the results of these experiments, 100 pg/ml IL-1β was chosen as the dose used for the fusion protein dose response experiments. In these experiments, ankle and knee cartilage explants (equilibrated in culture medium post-harvest) were treated continuously with IL-1β and received single doses of fusion proteins (ranging from 39.2 nM to 2 μM) at the start of the experiments. Media changes with IL-1β but without fusion proteins were performed once every 2 to 3 days. An untreated control group, a control with continuous IL-1β alone, and a control with IL-1β combined with continuous free IGF-1 (300 ng/ml or 39.2 nM) were included. Experiments were terminated at 7-day and 10-day timepoints, and the sGAG biosynthesis rate, metabolic rate, sGAG loss to culture medium and sGAG content of the explants were measured.
The metabolic rate of cartilage explants was measured using the Alamar Blue assay (ThermoFisher). Cartilage explants were incubated for 3 hours in a 1× solution of Alamar Blue dissolved in culture medium. At the end of the incubation period, the absorbance of the medium at 570 nm and 600 nm was measured using a microplate reader (Synergy H1 Hybrid Multi-Mode Microplate Reader, BioTek). These readings were used to calculate the percentage reduction of Alamar Blue, which is directly proportional to the explant metabolic rate. These values were first normalized by individual explant weights. Following this, the weight-normalized readings for the treatment groups were normalized by the weight-normalized mean value for the untreated controls. To measure the chondrocyte biosynthesis rate of sulfated glycosaminoglycans (sGAGs), cartilage explants were cultured in the presence of 10 μCi/mL 35S-sulfate radiolabel during the final two days of each experiment. […] To calculate the cumulative loss of GAGs from the explants, the amount of sGAG lost to the medium and that left behind in the explants at the end of the experiment were measured using the dimethylene blue (DMMB) dye binding assay (Farndale et al., Biochim Biophys Acta. 883(2):173-177 (1986)).

[3] = test system: human ankle cartilage explants; experiment: Quantitative uptake of fusion proteins in human ankle cartilage (uptake ratio); type: in vitro ADME; conditions: 1 μM in PBS + 1% BSA
Description: Cartilage explants were incubated in 250 μL of 1 μM solutions of different fusion proteins dissolved in 1×PBS+1% BSA for either 36 hours (FIG. 4A) or for 108 hours (FIG. 4B) (4.5 days). A group with free +9 GFP dissolved in 1×PBS+1% BSA (1 μM concentration) was included as a control for each of these two time points. An additional untreated control was included in these experiments. Cartilage explants were incubated in plain 1×PBS+1% BSA to account for and to correct for any autofluorescence effects. At the end of the incubation in the 1×PBS+1% BSA: The explants were transferred to a 10×PBS+1% BSA bath for 48 hours. The purpose of this was to desorb the GFPs taken up by the explants. The amount of GFPs left behind in the […] bath was quantified through fluorescence measurements. The desorption step in 10×PBS+1% BSA was followed by a second desorption step using fresh 10×PBS+1% BSA just to ensure any GFPs left in the explant after the 1st desorption come out. At the end of each desorption step, the fluorescence of the 10×PBS+1% BSA bath was measured. After the 2nd desorption step, the explants were digested in Proteinase K and their fluorescence was measured. The uptake ratio for the 36 hour and 108 hour experiments was calculated as (FIG. 4C): […]
Cartilage explants that had been equilibrated in culture medium post-harvest were transferred to sterile PBS and allowed to equilibrate for 1 hour before the start of the experiments. Sterile PBS solutions containing 1% bovine serum albumin (BSA) were prepared. Following this, 1 μM solutions of (+9GFP), (+9GFP)-(GGGGS)4-(IGF-1) (SEQ ID NO: 7), (+9GFP)-(EAAAK)3-(IGF-1) (SEQ ID NO: 8) and (+9GFP)-(GGGGS)3-(IGF-1) (SEQ ID NO: 9) were prepared. The BSA was included in the PBS to minimize loss of GFPs in the solution caused by non-specific binding to the plasticware. […] In contrast, use of polypropylene with 1% BSA enabled complete recovery of fluorescence.
At the end of the incubation period, cartilage explants were washed with PBS and transferred to a solution of 10×PBS+1% BSA for desorption. At the same time, the fluorescence of the absorption bath was measured using a plate reader (Synergy H1, Biotek Instruments Inc.) (excitation: 485 nm, emission: 528 nm). […] At the end of the desorption in 10×PBS+1% BSA, cartilage explants were weighed, and the fluorescence of the desorption bath was measured. This fluorescence measurement was used with a standard curve and the explant wet weights to calculate the concentration of GFP inside cartilage explants (mol/mg wet weight). The uptake ratio was calculated as the ratio of GFP concentration inside cartilage (mol/mg wet weight) to the final absorption bath concentration (mol/mL).

Substance | aggrecan biosynthesis compared to the untreated control [1] | cumulative sGAG loss compared to the untreated control [2] | Uptake ratio (Mean) ([3]; 36 hr) | Uptake ratio (Mean) ([3]; 108 hr)
IL-1β: human IL-1β (PeproTech), cytokine used to induce osteoarthritis-like biosynthesis loss in cartilage explants [reference compound] | significant reduction | higher cumulative sGAG loss | – | –
(+9GFP)-(GGGGS)3-(IGF-1): fusion protein of +9 GFP and human IGF-1 with flexible (GGGGS)3 linker, SEQ ID NO: 9 | – | – | 13.1 | 24.2
